Results on four compounds are retold here after article PMC3001885, “Metabolic Activity and mRNA Levels of Human Cardiac CYP450s Involved in Drug Metabolism” (PLoS ONE, 2010).

Data set [1] has as its system CYP450s in human heart microsomes. As to the kind of experiment: Inhibition of verapamil metabolite formation in human heart microsomes by chemical inhibitors. The note with it: inhibitor 100 µM, verapamil 400 µM.
The subject of the next data set is human heart microsomes. The experiment in a line: Verapamil metabolism in human heart microsomes (formation of metabolites, HPLC). In kind it is in vitro ADME. As for the experimental part: The HPLC system (Thermo Separation products, Fremont, CA) consisted of a SpectraSystem P4000 pump, a SpectraSystem AS3000 autosampler, a FL3000 fluorescence detector, a SpectraSystem UV3000 ultraviolet detector and PC1000 System Software.
Frozen samples of human heart ventricles (4–10 g) were immersed in cold phosphate buffer 100 mM (pH 7.4) containing potassium chloride 150 mM, EDTA 1 mM, dithiotreitol 0.5 mM and PMSF 0.01 mM (1∶3, w/v). Tissue was roughly sliced prior to homogenization using a Polytron. The resulting suspension was sonicated 3 times for 5–10 seconds. Homogenization and sonication were performed on ice. Microsomal fractions were isolated by centrifugation at 10,000 g for 20 minutes. The resulting supernatant was centrifuged twice at 100,000 g for 2 consecutive 90-minute periods. The final microsomal pellet was resuspended in a phosphate buffer 100 mM (pH 7.4), potassium chloride 150 mM and EDTA 1 mM. All procedures were performed at 4°C. […] The leftover heart microsomes were immediately shock frozen in liquid nitrogen for subsequent protein quantification. Microsomal heart proteins were quantified using a BCA Pierce kit.
All microsomal incubations were performed in duplicate.
Incubations containing microsomes, buffer and NADPH-regenerating system solution were pre-incubated at 37°C for 10 minutes. […] The enzymatic process was stopped by adding 500 µL of ice-cold acetonitrile. Different incubation times were assessed: 15 minutes to 4 hours. Incubation mixtures were centrifuged at 15,000 rpm for 10 minutes.
A series of incubations was also performed with previously inactivated human heart microsomes. The CYP450 proteins were inactivated by heating microsomes at 60°C for 10 minutes. Incubations were also conducted in the presence of nitrogen gas or carbon monoxide gas in replacement of ambient air to inactivate CYP450s.

Where [2] appears, read: left ventricular microsomes, n = 20, substrate verapamil.
The mark [3] stands for this setting: microsomes prepared from right ventricles, n = 8, substrate verapamil.

For the compound `CCCCCCCCN` [N-octylamine], the “decrease in formation of all major verapamil metabolites” value in data set [1] is “more than 80%”.
On the same count and under the same terms, the result for `CCCC(C(=O)OCCN(CC)CC)(c1ccccc1)c1ccccc1` [SKF525] reads “more than 80%”.
Take `COc1cc(C(C#N)(CCCNCCc2ccc(OC)c(OC)c2)C(C)C)ccc1O` (stereo not drawn) [PR22]: the “formation rate of verapamil metabolites, median (range; minimum-maximum values)” value with human heart microsomes (setting [2]) was 27 (2.1–76) pmol/min/mg of heart microsomal proteins; in the data set on human heart microsomes (setting [3]) it was 21 (3.7–64.4) pmol/min/mg of heart microsomal proteins.
Regarding `COc1ccc(CCNCCCC(C#N)(c2ccc(OC)c(OC)c2)C(C)C)cc1OC` (stereo not drawn) [norverapamil], the “formation rate of verapamil metabolites, median (range; minimum-maximum values)” value with human heart microsomes (setting [2]) was 25 (5.8–214) pmol/min/mg of heart microsomal proteins; with human heart microsomes (setting [3]), 39 (5.8–145) pmol/min/mg of heart microsomal proteins.
